Assay results reported in patent publication US9868738B2, “Diazine-fused amidines as BACE inhibitors, compositions, and their use” (Merck Sharp & Dohme Corp., priority 2014, dated 2018).

Tests used:
[1] = molecular target: purified human autoBACE-2 (Homo sapiens (Human), UniProt Q9Y5Z0); experiment: BACE-2 Assay (BACE-HTRF assay); type: biochemical; settings: Ki calculated from IC50 using the Cheng-Prusoff equation; QSY7-EISEVNLDAEFC-Eu-amide substrate 200 nM, pH 5.0
Description: Inhibitor IC50s at purified human autoBACE-2 are determined in a time-resolved endpoint proteolysis assay that measures hydrolysis of the QSY7-EISEVNLDAEFC-Eu-amide FRET peptide substrate (BACE-HTRF assay). BACE-mediated hydrolysis of this peptide results in an increase in relative fluorescence (RFU) at 620 nm after excitation with 320 nm light. Inhibitor compounds, prepared at 3× the desired final concentration in 1×BACE assay buffer (20 mM sodium acetate pH 5.0, 10% glycerol, 0.1% Brij-35) supplemented with 7.5% DMSO are pre-incubated with an equal volume of autoBACE-2 enzyme diluted in 1×BACE assay buffer (final enzyme concentration 1 nM) in black 384-well NUNC plates for 30 minutes at 30° C. […] DMSO is present at […] final concentration in the assay. Following laser excitation of sample wells at 320 nm, the fluorescence signal at 620 nm is collected for 400 ms following a 50 μs delay on a RUBYstar HTRF plate reader (BMG Labtechnologies). Raw RFU data is normalized to maximum (1.0 nM BACE/DMSO) and minimum (no enzyme/DMSO) RFU values. IC50s are determined by nonlinear regression analysis (sigmoidal dose response, variable slope) of percent inhibition data with minimum and maximum values set to 0 and 100 percent respectively. Similar IC50s are obtained when using raw RFU data. The Ki values are calculated from the IC50 using the Cheng-Prusoff equation.

[2] = molecular target: soluble human BACE1 catalytic domain (Homo sapiens (Human), UniProt P56817); experiment: BACE-1 Ki Assay (BACE-1 HTRF FRET Assay); type: biochemical; settings: Ki calculated from IC50 using the Cheng-Prusoff equation; QSY7-APPswe-Eu substrate 200 nM, pH 5.0
Description: In another embodiment, the compounds of the invention comprise the example compounds shown in the table below, or a tautomer thereof, or a pharmaceutically acceptable salt of said compound or said tautomer. Examples 2 to 42 were prepared using the method similar to Ex. 1. Example 44 to 51 were synthesized using the method similar to Ex. 43. BACE-1 values reported in this table were measured using BACE-1 Ki Assay (BACE-1 HTRF FRET Assay).
• Reagents: Na^+-Acetate pH 5.0; 1% Brij-35; Glycerol; Dimethyl Sulfoxide (DMSO); Recombinant human soluble BACE1 catalytic domain (>95% pure); APP Swedish mutant peptide substrate (QSY7-APP^swe-Eu): QSY7-EISEVNLDAEFC-Europium-amide.
A homogeneous time-resolved FRET assay can be used to determine IC50 values for inhibitors of the soluble human BACE1 catalytic domain. This assay monitors the increase of 620 nm fluorescence that resulted from BACE1 cleavage of an APPswedish APP^swe mutant peptide FRET substrate (QSY7-EISEVNLDAEFC-Europium-amide). This substrate contains an N-terminal QSY7 moiety that serves as a quencher of the C-terminal Europium fluorophore (620 nm Em). In the absence of enzyme activity, 620 nm fluorescence is low in the assay and increased linearly over 3 hours in the presence of uninhibited BACE1 enzyme. Inhibition of BACE1 cleavage of the QSY7-APP^swe-Eu substrate by inhibitors is manifested as a suppression of 620 nm fluorescence.
Varying concentrations of inhibitors at 3× the final desired concentration in a volume of 10 ul are preincubated with purified human BACE1 catalytic domain (3 nM in 10 μl) for 30 minutes at 30° C. in reaction buffer containing 20 mM Na-Acetate pH 5.0, 10% glycerol, 0.1% Brij-35 and 7.5% DSMO. Reactions are initiated by addition of 10 μl of 600 nM QSY7-APP^swe-Eu substrate (200 nM final) to give a final reaction volume of 30 μl in a 384 well Nunc HTRF plate. The reactions are incubated at 30° C. for 1.5 hours. The 620 nm fluorescence is then read on a Rubystar HTRF plate reader (BMG Labtechnologies) using a 50 millisecond delay followed by a 400 millisecond acquisition time window. Inhibitor IC50 values are derived from non-linear regression analysis of concentration response curves. Ki values are then calculated from IC50 values using the Cheng-Prusoff equation using a previously determined […] of 8 μM for the QSY7-APP^swe-Eu substrate at BACE1.

purified human autoBACE-2, sequence (Q9Y5Z0 63-473 limits assumed): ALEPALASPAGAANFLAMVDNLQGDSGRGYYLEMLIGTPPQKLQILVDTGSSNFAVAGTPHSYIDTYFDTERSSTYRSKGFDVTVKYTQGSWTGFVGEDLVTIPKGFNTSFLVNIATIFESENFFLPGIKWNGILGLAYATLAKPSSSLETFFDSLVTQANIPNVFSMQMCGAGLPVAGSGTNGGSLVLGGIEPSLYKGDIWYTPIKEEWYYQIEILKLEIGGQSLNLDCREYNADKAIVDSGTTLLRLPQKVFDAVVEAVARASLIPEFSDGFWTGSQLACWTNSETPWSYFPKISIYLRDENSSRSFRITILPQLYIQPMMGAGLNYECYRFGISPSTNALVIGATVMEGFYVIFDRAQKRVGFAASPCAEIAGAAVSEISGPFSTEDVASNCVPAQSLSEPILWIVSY
soluble human BACE1 catalytic domain, sequence (P56817 75-416): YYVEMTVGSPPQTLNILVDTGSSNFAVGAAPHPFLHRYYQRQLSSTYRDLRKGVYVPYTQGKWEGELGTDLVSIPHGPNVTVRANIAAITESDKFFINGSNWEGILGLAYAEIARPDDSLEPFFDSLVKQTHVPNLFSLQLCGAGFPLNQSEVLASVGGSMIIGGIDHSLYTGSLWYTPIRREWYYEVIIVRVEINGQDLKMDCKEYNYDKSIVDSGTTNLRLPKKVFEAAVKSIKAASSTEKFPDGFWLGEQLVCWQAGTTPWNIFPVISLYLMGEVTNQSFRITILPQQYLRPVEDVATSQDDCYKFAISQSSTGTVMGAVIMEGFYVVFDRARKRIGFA

SMILES | Ki [1] [nM] | Ki [2] [nM]
Cc1ncc2c(n1)C[C@@](C)(c1cc(NC(=O)c3ccc(Cl)cn3)ccc1F)NC2=N [Example 45, 5-chloro-N-{4-fluoro-3-[(7S)-5-imino-2,7-dimethyl-5,6,7,8-tetrahydropyrido[4,3-d]pyrimidin-7-yl]phenyl}pyridine-2-carboxamide] | 4.2 | 10.4
COc1cccc2cc(-c3csc([C@]4(C)Cc5nc(C6CC6)ncc5C(=N)N4)c3)[nH]c12 [Example 33, (7S)-2-cyclopropyl-7-[4-(7-methoxy-1H-indo1-2-yl)thiophen-2-yl]-7-methyl-7,8-dihydropyrido[4,3-d]pyrimidin-5(6H)-imine] | 4.8 | 38.2
COc1cccc2cc(-c3csc([C@]4(C)Cc5nc(C(F)(F)F)ncc5C(=N)N4)c3)[nH]c12 [Example 39, (7S)-7-[4-(7-methoxy-1H-indo1-2-yl)thiophen-2-yl]-7-methyl-2-(trifluoromethyl)-7,8-dihydropyrido[4,3-d]pyrimidin-5(6H)-imine] | 1.5 | 28.9
C[C@@]1(c2cc(NC(=O)c3ccc(C#N)cn3)ccc2F)Cc2nccnc2C(=N)N1 [Example 51, 5-cyano-N-{4-fluoro-3-[(7S)-5-imino-7-methyl-5,6,7,8-tetrahydropyrido[3,4-b]pyrazin-7-yl]phenyl}pyridine-2-carboxamide] | 207 | 62.7
C[C@@]1(c2cc(NC(=O)c3ccc(C(F)(F)F)cn3)ccc2F)Cc2nc(C3CC3)ncc2C(=N)N1 [Example 49, N-{3-[(7S)-2-cyclopropyl-5-imino-7-methyl-5,6,7,8-tetrahydropyrido[4,3-d]pyrimidin-7-yl]-4-fluorophenyl}-5-(trifluoromethyl)pyridine-2-carboxamide] | 34.2 | 20.5
C[C@@]1(c2cc(-c3cccc(C(F)(F)F)c3)ccc2F)Cc2ncncc2C(=N)N1 [Example 6, (7S)-7-[4-fluoro-3′-(trifluoromethyl)biphenyl-3-yl]-7-methyl-7,8-dihydropyrido[4,3-d]pyrimidin-5(6H)-imine] | 549 | 3040
Cc1ncc2c(n1)C[C@](c1cc(NC(=O)c3ccc(C#N)cn3)ccc1F)(C(F)F)NC2=N [Example 50, 5-cyano-N-{3-[(7S)-7-(difluoromethyl)-5-imino-2-methyl-5,6,7,8-tetrahydropyrido[4,3-d]pyrimidin-7-yl]-4-fluorophenyl}pyridine-2-carboxamide] | 10.9 | 7.1
C[C@]1(c2sc(-c3cccc(-c4nnco4)c3)cc2Cl)NC(=N)c2cncnc2C1(F)F [Example 20, (7S)-7-{3-chloro-5-[3-(1,3,4-oxadiazol-2-yl)phenyl]thiophen-2-yl}-8,8-difluoro-7-methyl-7,8-dihydropyrido[4,3-d]pyrimidin-5(6H)-imine] | 118 | 33.3

Now from value to compound:

Ki [1] [nM] | Ki [2] [nM] | SMILES
20.2 | 108 | CC#Cc1cncc(-c2ccc(F)c([C@]3(C)Cc4ncncc4C(=N)N3)c2)c1 [Example 12, (7S)-7-[2-fluoro-5-(5-prop-1-yn-1-ylpyridin-3-yl)phenyl]-7-methyl-7,8-dihydropyrido[4,3-d]pyrimidin-5(6H)-imine]
130 | 253 | C[C@@]1(c2cc(-c3cncc(Cl)c3)ccc2F)Cc2ncncc2C(=N)N1 [Example 4, (7S)-7-[5-(5-chloropyridin-3-yl)-2-fluoro-phenyl]-7-methyl-7,8-dihydropyrido[4,3-d]pyrimidin-5(6H)-imine]
53.5 | 199 | COc1cccc(-c2ccc(F)c([C@]3(C)Cc4ncncc4C(=N)N3)c2)c1 [Example 5, (7S)-7-(4-fluoro-3′-methoxybiphenyl-3-yl)-7-methyl-7,8-dihydro-pyrido[4,3-d]pyrimidin-5(6H)-imine]
87.8 | 225 | COc1cncc(-c2ccc(F)c([C@]3(C)Cc4ncncc4C(=N)N3)c2)c1 [Example 8, (7S)-7-[2-fluoro-5-(5-methoxypyridin-3-yl)phenyl]-7-methyl-7,8-dihydropyrido[4,3-d]pyrimidin-5(6H)-imine]
